US5519028A, “Antiviral preparations” (priority 1992, dated 1996)

What was measured:
[1] = Sub-chronic administration toxicity in rats; assay type: in vivo, male and female Sprague-Dawley rats (OPA); conditions: 530 and 2120 mg/kg/day
From the text: No lesions of the liver, kidneys, duodenum, myocardia, spleen, thyroid and parathyroid glands, testicles or ovaries were visible by microscope.

[2] = Penetration of the blood-brain barrier (encephalic content); assay type: in vivo, male CDI mice; conditions: 10 mg orally
HIV = assay type: cell-based
H-9 cells = test: Multiplication of non-infected H-9 cells; assay type: cell-based; conditions: 30 and 60 μg/ml
MT4 cells = test: Cellular toxicity in MT4 cells; assay type: cell-based; conditions: d3, duplicate
HIV-1 TIG2 (HIV-1AIDS) [3] = test: HIV P24 production in PBMC, viral inoculum pretreated, isolate TIG2; assay type: cell-based; conditions: virus pretreated with 30 or 60 μg/ml
Protocol: (§1) To test the efficacy of flavopereirine on the infectious capability of HIV-1, two experiments were conducted. […] After 2 hours of incubation, the cells were rinsed twice and cultivated in 1 ml of RPMI 1640 containing 20 IU of IL-2 per ml (Boehringer […], Germany), 2 μg of Polybrene (hexadimethrine bromide) per ml (Sigma, St. Louis, Mo., USA) and 10^-7 IU of goat antiserum acting against human alpha interferon (Janssen, Beerse, Belgium) per ml. Half the culture was changed after 72 hours, and thereafter every 48 hours until the 30th day. […] The surface material of the culture was tested by an immuno-enzymatic (ELISA) assay for the production of antigen P24 (Abbott, Chicago, Ill., USA) and the optical density (OD) of the resulting color was converted into P24 concentration from the slope of a standard nomogram, as described by W. Lu and J. -M. Andrieu, Journal of Virology, 66(1): 334-340 (1992).

HIV-1 TIG2 (HIV-1AIDS) [4] = test: HIV P24 production, target PBMC pretreated, isolate TIG2; assay type: cell-based; conditions: for Post-infection production of HIV P24: PBMC + 30 μg/ml 2 hours
Protocol: as §1

[5] = Cytotoxicity (viability) in resting PBMC; assay type: cell-based, human; conditions: human, pbmc, read-out: Viability of PBMC after exposure; for viability at 72 h: d3; for viability at 168 h: d7; for viability at 264 h: d11; for viability at 312 h: d13; for viability at 360 h: d15
Protocol: (§2) To evaluate the cytotoxicity of flavopereirine in resting PBMC and in blast cells, prewashed fresh and blastic PBMC taken from five randomly-selected,healthy, HIV-negative donors were treated in triplicate with 30 or 60 μg flavopereirine per ml of alcoholic solution for two hours, After washing twice, the cells were placed in culture in cellular culture medium until day 15. The viability of the cells of each group was examined by exclusion coloring with trypan blue and by quantimetric analysis. Cultures of HIV-negative PBMC without flavopereirine (compound H) were used as controls.

human PBMC at rest = test: Cytotoxicity (viability) in resting PBMC; assay type: cell-based
Protocol: as §2

[6] = Cytotoxicity (viability) in blastic PBMC; assay type: cell-based, human; conditions: human, pha-stimulated pbmc, blastic, read-out: Viability of PBMC after exposure; for viability at 72 h: d3; for viability at 168 h: d7; for viability at 264 h: d11; for viability at 312 h: d13; for viability at 360 h: d15
Protocol: as §2

[7] = tested on: PBMC stimulated by PHA (blastic); test: Cytotoxicity (viability) in blastic PBMC; assay type: cell-based, human; conditions: 30 or 60 μg/ml
Protocol: as §2

[8] = tested on: human PBMC stimulated with PHA (blasts); test: Cytotoxicity in PHA-stimulated PBMC with or without human AB serum; assay type: cell-based
Protocol: The cytotoxicity of flavopereirine (compound H) in human PBMC stimulated with PHA was tested in the presence and absence of human AB serum as shown in Table IX.

interleukin-6 = test: IL-6 production by monocytes of normal donors; assay type: cell-based, human
Protocol: (§3) The effects of flavopereirine on the production of primary (IL-1β and TNF-α) and secondary (IL-6) cytokines by monocytes was also tested. The adhesive monocytes used were taken from the blood of two types of donors:
Normal donors--voluntary blood donors who attended the blood bank of the Pitie-Salpetriere Hospital, Paris, France; and […]

TNF-α = TNF-α production by monocytes of HIV-positive donors; assay type: cell-based, human
Protocol: as §3
(§4) HIV-positive donors from medical consultations. These individuals were in the early stages of HIV infection and, at the moment of taking the blood, were not undergoing any treatment. The risk factors involved were intravenous drug abuse for six of the donors, sexual transmission for three and blood transfusion (in Zaire) for one patient. No correlation was found between the risk factors and the results of the experiments.
(§5) The response of the monocytes taken from the various HIV-positive donors was tested in terms of spontaneous response. The quantities of cells received were low (the donors were not affected by cytapheresy), and the experiments were therefore limited by the number of cells available.

IL-1β = IL-1β production by monocytes of HIV-positive donors; assay type: cell-based, human
Protocol: as §3, §4, §5

influenza virus = conditions: cited from earlier work
HIV-1 = test: microbe, parasite or virus in culture; conditions: Human immunodeficiency virus 1, PBMC, read-out: concentration totally inhibiting replication of HIV-1

## CCc1ccc2c3[nH]c4ccccc4c3cc[n+]2c1 [flavopereirine]
[1]
  alteration in globular blood count: Neither was any alteration in the globular blood count noted
  alterations in body weight or feeding: no alterations were noted in either body weight or feeding
  hepatic and renal functions: remained normal
[1]; microscope
  lesions of liver, kidneys, duodenum, myocardia, spleen, thyroid, parathyroid, testicles, ovaries: No lesions
[2]; 20 g mice, brains 0.5 g
  encephalic flavopereirine concentration: 14 µg/g
[2]; mice
  encephalic flavopereirine content: approximately 7 μg
  penetration of the blood-brain barrier: observed to penetrate the blood-brain barrier
HIV
  infectious units detectable: ≤ 3000
  inhibition of infection: exceeds 99%
HIV; h-9 cells
  reduction in quantity of infected cells: around 40%
H-9 cells
  multiplication of non-infected cells: does not affect the multiplication of non-infected cells
MT4 cells; 100 μg/ml, Table I
  cellular toxicity: cellular toxicity
MT4 cells; 100 μg/ml, Table I, listed as H
  cellular toxicity: Tox
MT4 cells; 100 μg/ml, Table II
  cellular toxicity: Tox
MT4 cells; 400 μg/ml, Table I
  cellular toxicity: cellular toxicity
MT4 cells; 400 μg/ml, Table I, listed as H
  cellular toxicity: Tox
HIV-1 TIG2 (HIV-1AIDS) [3]
  infection of target PBMC: completely prevented the infection of target PBMC
HIV-1 TIG2 (HIV-1AIDS) [4]; d3
  Post-infection production of HIV P24: 515 ± 103 pg/mL
HIV-1 TIG2 (HIV-1AIDS) [4]; d5
  Post-infection production of HIV P24: > 1500 pg/mL
HIV-1 TIG2 (HIV-1AIDS) [4]; target PBMC pretreated with 60 μg/ml only
  inhibition of productive viral infections: complete inhibition of productive viral infections
[5]; 30 μg/ml 2 hrs
  viability at 72 h: 95 ± 4%
  viability at 168 h: 93 ± 2%
  viability at 264 h: 88 ± 7%
  viability at 312 h: 82 ± 10%
  viability at 360 h: 81 ± 11%
[5]; 60 μg/ml 2 hrs
  viability at 72 h: 56 ± 6%
  viability at 168 h: 23 ± 4%
  viability at 264 h: 17 ± 4%
  viability at 312 h: 12 ± 5%
  viability at 360 h: 25 ± 8%
Human PBMC at rest; 30 μg/ml
  significant reduction of viability of resting PBMC: this was not the case
Human PBMC at rest; 60 μg/ml, p<0.05
  viability of resting PBMC: reduced significantly
[6]; 30 μg/ml 2 hrs
  viability at 72 h: 88 ± 3%
  viability at 168 h: 35 ± 7%
  viability at 264 h: 71 ± 3%
  viability at 312 h: 76 ± 9%
  viability at 360 h: 69 ± 8%
[6]; 60 μg/ml 2 hrs
  viability at 72 h: 79 ± 4%
  viability at 168 h: 74 ± 5%
  viability at 264 h: 70 ± 4%
  viability at 312 h: 71 ± 8%
  viability at 360 h: 63 ± 7%
[7]
  viability of blastic cells: appeared to be independent of exposure to compound H
[8]; 200 μg/ml, p<0.001
  viability of blast PBMC: diminished significantly
[8]; 100, 60, 30 and 10 μg/ml
  significant reduction of viability of blast PBMC: this was not the case
interleukin-6; doses of less than 5 μg/ml, first two normal donors, cytokine not specified
  activity on cytokine production: inactive
interleukin-6; normal donors
  direct activity on production of interleukin-6: No modification in response was observed
interleukin-6; stimulated monocytes, dose-dependent, never total, P<0.05
  indirect activity on production of IL-6: sharp reduction in the production of IL-6
TNF-α; 20 μg/ml only, p<0.05
  indirect activity on production of TNF-α: almost total reduction in the production of TNF-α
TNF-α; HIV-positive donors
  direct activity on base production of TNF-α: No modification on the base production was observed
IL-1β; HIV-positive donors
  direct activity on base production of IL-1β: No modification on the base production was observed
IL-1β; three dosages, p<0.05
  indirect activity on production of interleukin-1: absence of any impact on the production of interleukin-1
Influenza virus; EP-A-0 059 817
  activity against the influenza virus: active against the influenza virus
Influenza virus; in vivo
  action against influenza (RNA virus): appears to act in vivo against influenza
HIV-1
  IC100: 60 to 100 µg/mL
